# Experimental data taken from ChEMBL document CHEMBL1201862, “PubChem BioAssay data set” (2004).
#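 1) Cells in 96-well plates. 2) Compound, 48 h, 5 concentrations. 3) Linear interpolation between surrounding doses. 4) Unreached endpoint = highest concentration. GI50 is the concentration that inhibits growth by half.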 The source made the active and inactive calls. Cut-off read from the data, not from the text of the source: active = GI50 up to about 1.1 µM and inactive = higher.
# Assays:
# Assay in all cases: DTP human tumour cell line panel, 48 h
# 786-0 = test system: 786-0
# A498 = test system: A498
# A549 = test system: A549
# ACHN = test system: ACHN
# CAKI-1 = test system: CAKI-1
# CCRF-CEM = test system: CCRF-CEM
# COLO 205 = test system: COLO 205
# DLD-1 = test system: DLD-1
# DMS-114 = test system: DMS-114
# DMS-273 = test system: DMS-273
# EKVX = test system: EKVX
# HCT-116 = test system: HCT-116
# HCT-15 = test system: HCT-15
# HL-60 = test system: HL-60
# HOP-18 = test system: HOP-18
# HOP-92 = test system: HOP-92
# HT-29 = test system: HT-29
# IGROV-1 = test system: IGROV-1
# K562 = test system: K562
# KM-20L2 = test system: KM-20L2
# LOX IMVI = test system: LOX IMVI
# LXFL 529 = test system: LXFL 529
# M14 = test system: M14
# M19-MEL = test system: M19-MEL
# MOLT-4 = test system: MOLT-4
# NCI-H23 = test system: NCI-H23
# NCI-H460 = test system: NCI-H460
# NCI-H522 = test system: NCI-H522
# OVCAR-8 = test system: OVCAR-8
# RPMI-8226 = test system: RPMI-8226
# RXF 393 = test system: RXF 393
# RXF 631 = test system: RXF 631
# SF-268 = test system: SF-268
# SF-295 = test system: SF-295
# SF-539 = test system: SF-539
# SK-MEL-28 = test system: SK-MEL-28
# SK-MEL-5 = test system: SK-MEL-5
# SK-OV-3 = test system: SK-OV-3
# SN12C = test system: SN12C
# SNB-19 = test system: SNB-19
# SW-620 = test system: SW-620
# TK-10 = test system: TK-10
# U-251 = test system: U-251
# UACC-62 = test system: UACC-62
# UO-31 = test system: UO-31
# XF498 = test system: XF498
# HOP-62 = test system: HOP-62
# KM12 = test system: KM12
# Malme-3M = test system: Malme-3M
# NCI-H226 = test system: NCI-H226
# OVCAR-3 = test system: OVCAR-3
# OVCAR-4 = test system: OVCAR-4
# SK-MEL-2 = test system: SK-MEL-2
# SNB-75 = test system: SNB-75
# SR = test system: SR
# UACC-257 = test system: UACC-257
# HCC 2998 = test system: HCC 2998
# OVCAR-5 = test system: OVCAR-5
# SNB-78 = test system: SNB-78
smiles,measurement,setting,value
COc1ccc(/C=C/C(=O)c2c(-c3ccccc3)nn(C)c(=O)c2N2CCOCC2)cc1,GI50,786-0,> 100 µM (inactive)
same,GI50,A498,> 100 µM (inactive)
same,GI50,A549,> 100 µM (inactive)
same,GI50,ACHN,> 100 µM (inactive)
same,GI50,CAKI-1,> 100 µM (inactive)
same,GI50,CCRF-CEM,63 µM (inactive)
same,GI50,COLO 205,> 100 µM (inactive)
same,GI50,DLD-1,> 100 µM (inactive)
same,GI50,DMS-114,> 100 µM (inactive)
same,GI50,DMS-273,> 100 µM (inactive)
same,GI50,EKVX,> 100 µM (inactive)
same,GI50,HCT-116,54.2 µM (inactive)
same,GI50,HCT-15,65.9 µM
same,GI50,HL-60,21.4 µM (inactive)
same,GI50,HOP-18,> 100 µM (inactive)
same,GI50,HOP-92,6.92 µM (inactive)
same,GI50,HT-29,> 100 µM (inactive)
same,GI50,IGROV-1,> 100 µM (inactive)
same,GI50,K562,40.5 µM (inactive)
same,GI50,KM-20L2,60.3 µM (inactive)
same,GI50,LOX IMVI,68.1 µM (inactive)
same,GI50,LXFL 529,> 100 µM (inactive)
same,GI50,M14,> 100 µM (inactive)
same,GI50,M19-MEL,> 100 µM (inactive)
same,GI50,MOLT-4,43.5 µM (inactive)
same,GI50,NCI-H23,> 100 µM (inactive)
same,GI50,NCI-H460,> 100 µM (inactive)
same,GI50,NCI-H522,> 100 µM (inactive)
same,GI50,OVCAR-8,> 100 µM (inactive)
same,GI50,RPMI-8226,38.5 µM (inactive)
same,GI50,RXF 393,> 100 µM (inactive)
same,GI50,RXF 631,> 100 µM (inactive)
same,GI50,SF-268,> 100 µM (inactive)
same,GI50,SF-295,> 100 µM (inactive)
same,GI50,SF-539,> 100 µM (inactive)
same,GI50,SK-MEL-28,> 100 µM (inactive)
same,GI50,SK-MEL-5,97.9 µM (inactive)
same,GI50,SK-OV-3,> 100 µM (inactive)
same,GI50,SN12C,> 100 µM (inactive)
same,GI50,SNB-19,> 100 µM (inactive)
same,GI50,SW-620,> 100 µM (inactive)
same,GI50,TK-10,> 100 µM (inactive)
same,GI50,U-251,> 100 µM (inactive)
same,GI50,UACC-62,> 100 µM (inactive)
same,GI50,UO-31,> 100 µM (inactive)
same,GI50,XF498,0.0601 µM (active)
CC1=CC(=O)N2[C@H](OC[C@@H]2C(C)C)O1,GI50,786-0,> 100 µM (inactive)
same,GI50,A549,> 100 µM (inactive)
same,GI50,ACHN,> 100 µM (inactive)
same,GI50,CAKI-1,> 100 µM (inactive)
same,GI50,CCRF-CEM,> 100 µM (inactive)
same,GI50,COLO 205,> 100 µM (inactive)
same,GI50,DLD-1,> 100 µM (inactive)
same,GI50,DMS-114,> 100 µM (inactive)
same,GI50,EKVX,> 10 µM (inactive)
same,GI50,HCT-116,> 100 µM (inactive)
same,GI50,HCT-15,> 100 µM
same,GI50,HL-60,> 100 µM (inactive)
same,GI50,HOP-18,> 100 µM (inactive)
same,GI50,HOP-62,> 100 µM (inactive)
same,GI50,HOP-92,> 100 µM (inactive)
same,GI50,HT-29,> 100 µM (inactive)
same,GI50,IGROV-1,> 100 µM (inactive)
same,GI50,K562,> 100 µM (inactive)
same,GI50,KM-20L2,> 100 µM (inactive)
same,GI50,KM12,> 100 µM (inactive)
same,GI50,LXFL 529,> 100 µM (inactive)
same,GI50,M14,> 100 µM (inactive)
same,GI50,M19-MEL,> 100 µM (inactive)
same,GI50,MOLT-4,> 100 µM (inactive)
same,GI50,Malme-3M,> 100 µM (inactive)
same,GI50,NCI-H226,> 100 µM (inactive)
same,GI50,NCI-H23,> 100 µM (inactive)
same,GI50,NCI-H460,> 100 µM (inactive)
same,GI50,NCI-H522,> 100 µM (inactive)
same,GI50,OVCAR-3,> 100 µM (inactive)
same,GI50,OVCAR-4,> 100 µM (inactive)
same,GI50,OVCAR-8,> 100 µM (inactive)
same,GI50,RPMI-8226,> 100 µM (inactive)
same,GI50,RXF 393,> 100 µM (inactive)
same,GI50,RXF 631,> 100 µM (inactive)
same,GI50,SF-268,> 100 µM (inactive)
same,GI50,SF-295,> 100 µM (inactive)
same,GI50,SF-539,> 100 µM (inactive)
same,GI50,SK-MEL-28,> 100 µM (inactive)
same,GI50,SK-MEL-2,> 100 µM (inactive)
same,GI50,SK-MEL-5,> 100 µM (inactive)
same,GI50,SK-OV-3,> 100 µM (inactive)
same,GI50,SN12C,> 100 µM (inactive)
same,GI50,SNB-19,> 100 µM (inactive)
same,GI50,SNB-75,> 100 µM (inactive)
same,GI50,SR,> 100 µM (inactive)
same,GI50,SW-620,> 100 µM (inactive)
same,GI50,TK-10,> 100 µM (inactive)
same,GI50,U-251,> 100 µM (inactive)
same,GI50,UACC-257,> 100 µM (inactive)
same,GI50,UACC-62,> 100 µM (inactive)
same,GI50,UO-31,> 100 µM (inactive)
same,GI50,XF498,> 100 µM (inactive)
O=C1CCC(=O)C(C(=O)CCC(=O)Nc2ccc(Cl)cc2)C1 (configuration not stated),GI50,786-0,> 100 µM (inactive)
same,GI50,A498,> 100 µM (inactive)
same,GI50,A549,> 100 µM (inactive)
same,GI50,ACHN,> 100 µM (inactive)
same,GI50,CAKI-1,> 100 µM (inactive)
same,GI50,CCRF-CEM,> 100 µM (inactive)
same,GI50,COLO 205,> 100 µM (inactive)
same,GI50,DLD-1,> 100 µM (inactive)
same,GI50,DMS-114,> 100 µM (inactive)
same,GI50,DMS-273,> 100 µM (inactive)
same,GI50,EKVX,> 100 µM (inactive)
same,GI50,HCC 2998,> 100 µM (inactive)
same,GI50,HCT-116,> 100 µM (inactive)
same,GI50,HCT-15,> 100 µM
same,GI50,HL-60,> 100 µM (inactive)
same,GI50,HOP-18,> 100 µM (inactive)
same,GI50,HOP-92,> 100 µM (inactive)
same,GI50,HT-29,> 100 µM (inactive)
same,GI50,IGROV-1,> 100 µM (inactive)
same,GI50,K562,> 100 µM (inactive)
same,GI50,KM-20L2,> 100 µM (inactive)
same,GI50,KM12,> 100 µM (inactive)
same,GI50,LOX IMVI,> 100 µM (inactive)
same,GI50,LXFL 529,> 100 µM (inactive)
same,GI50,M14,> 100 µM (inactive)
same,GI50,MOLT-4,> 100 µM (inactive)
same,GI50,Malme-3M,> 100 µM (inactive)
same,GI50,NCI-H226,> 100 µM (inactive)
same,GI50,NCI-H23,> 100 µM (inactive)
same,GI50,NCI-H460,> 100 µM (inactive)
same,GI50,NCI-H522,> 100 µM (inactive)
same,GI50,OVCAR-3,> 100 µM (inactive)
same,GI50,OVCAR-4,> 100 µM (inactive)
same,GI50,OVCAR-5,> 100 µM (inactive)
same,GI50,OVCAR-8,> 100 µM (inactive)
same,GI50,RPMI-8226,> 100 µM (inactive)
same,GI50,RXF 631,> 100 µM (inactive)
same,GI50,SF-268,> 100 µM (inactive)
same,GI50,SF-295,> 100 µM (inactive)
same,GI50,SF-539,> 100 µM (inactive)
same,GI50,SK-MEL-2,> 100 µM (inactive)
same,GI50,SK-MEL-5,> 100 µM (inactive)
same,GI50,SK-OV-3,> 100 µM (inactive)
same,GI50,SN12C,> 100 µM (inactive)
same,GI50,SNB-19,> 100 µM (inactive)
same,GI50,SNB-78,> 100 µM (inactive)
same,GI50,SW-620,> 100 µM (inactive)
same,GI50,TK-10,> 100 µM (inactive)
same,GI50,U-251,> 100 µM (inactive)
same,GI50,UACC-257,> 100 µM (inactive)
same,GI50,UACC-62,> 100 µM (inactive)
same,GI50,UO-31,> 100 µM (inactive)
same,GI50,XF498,> 100 µM (inactive)
